{"source": "patent US12123009B2", "about": "“Methods and compositions for PPO herbicide tolerance in plants” (Monsanto Technology LLC, priority 2015, dated 2024)", "key": {"[1]": {"system": "maize, non-transgenic or F1 containing H_N10 (SEQ ID NO: 4)", "test": "Efficacy field trial of F1 maize", "type": "in vivo", "method": "This F1 population was segregating (50% hemizygous and 50% null) and selection for transgenic plants was not conducted prior to injury ratings. The overall average injury ratings for such a population are expected to be higher than a homogenous transgenic population since it is difficult to discern non-transgenic plants from transgenic plants. The trials were conducted at two locations with two replicates and 3 treatments per construct. Non-transgenic maize plants were used as a negative control. The herbicide application treatments were as follows: Treatment 1 was 0.036 lb ai/acre S-3100 applied at V2 followed by (fb) V4 fb V8; Treatment 2: was 0.072 lb ai/acre S-3100 applied at V2 fb V4 fb V8; Treatment 3: was 0.144 lb ai/acre S-3100 applied at V2 fb V4 fb V8. Crop Injury Percent ratings were assessed at the V2 growth stage (CIPV2) and at the V4 growth stage (CIPV4) at 5 to 7 days after treatment (the error V2 and error V4 are half of the least significant difference (LSD)). The crop injury ratings were combined for both locations."}, "[2]": {"system": "R0 transgenic soybean expressing HemG PPO with targeting peptide", "test": "R0 transgenic soybean herbicide tolerance: percent injury scores", "type": "in vivo", "conditions": "seven days", "text": "This permitted the side-by-side comparison of seven different HemG PPO enzymes with thirty-seven different targeting peptides using the same promoter and 3′UTR elements for gene expression. These plant transformation constructs were used to transform soybean excised embryos (germplasm A3555) using A. tumefaciens and standard methods known in the art. Four hundred explants were inoculated for each construct resulting in twelve containers per construct. A sterile PPO herbicide solution was used for herbicide tolerance testing. The herbicide solution consisted of 0.3 g of S-3100 in crop oil concentrate (5.0 mL) and 495 mL of deionized water. This was filtered through a 0.45 micron Nalgene® Rapid-Flow™ Tissue Culture Filter Unit and Surfactant-Free Cellulose Acetate membrane filter unit (VWR, Radnor, PA, USA). The resulting sterile solution was shaken before application.\n(§1) The plantlets in the non-sprayed containers corresponding to constructs having a score of 2 were transplanted at approximately 7 weeks post transformation and grown as R0 plants using standard methods known in the art. Plantlets corresponding to non-tolerant scores of 0 and 1 were also grown to serve as negative controls. The R0 plants were grown in a greenhouse under long-day nursery conditions (18 hr light at 80° F. then 6 hr dark at 74° F.) for approximately four weeks. At eleven weeks, the R0 plants were sprayed with two passes of the same herbicide solution (0.3 g of 5-3100) described above. Herbicide injury ratings were collected seven days after treatment.\n(§2) The results of the herbicide tolerance application at eleven weeks to the R0 plants confirmed the low percent injury rating scores observed in the high-throughput screen at five weeks. Any injury rating of 30% or above was equivalent to non-transgenic soybean injury ratings. A few of the constructs stood out as providing very good tolerance to the herbicide application. […] Data are provided in Table 10, where n.d. indicates the analysis was not conducted."}, "[3]": {"system": "leaf discs of transgenic maize expressing H_N10 (SEQ ID NO: 4)", "test": "Leaf disc assay, maize", "type": "in vivo", "conditions": "H_N10, construct 6; 1 micromolar", "method": "A leaf-disc assay was employed for rapid and minimally damaging assessment of herbicide tolerance in transgenic plants expressing a recombinant PPO enzyme. Leaf tissue was sampled from the youngest fully-green leaf of corn and soybean plants. Five 4-mm diameter leaf discs were cut from the leaf samples using a disposable biopsy punch with a plunger (Integra® Miltex®, Inc., York. Pennsylvania) and the leaf discs were placed into one ml of incubation solution (1 mM MES, pH 6.5, 1% w/v sucrose, 1% (v/v) acetone) in 24-well polystyrene plates with lids. For herbicide tolerance analysis, S-3100 was added to the incubation solution to a final concentration of 1 micromolar. Vacuum infiltration was applied and plates of leaf discs were incubated in continuous darkness for one day at room temperature (23-24° C.) followed by one (soybean) or two (corn) days continuous light incubation under overhead fluorescent and incandescent bulbs (520 uE) at 26-27° C. Leaf disc injury was then scored visually on a scale from 0 (lowest injury) to 4 (highest injury), with lower scores indicating better tolerance to the PPO herbicide."}, "[4]": {"target": "H_N70 (SEQ ID NO: 8), microbial HemG protoporphyrinogen oxidase (Pantoea phytostimulans, UniProt A0ACH3N612)", "sequence (A0ACH3N612 entry or part of it)": "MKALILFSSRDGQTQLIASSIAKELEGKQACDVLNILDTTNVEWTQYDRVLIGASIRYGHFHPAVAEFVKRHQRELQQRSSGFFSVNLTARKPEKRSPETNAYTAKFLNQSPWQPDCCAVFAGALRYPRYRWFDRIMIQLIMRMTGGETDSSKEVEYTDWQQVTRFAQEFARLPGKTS", "test": "PPO enzyme assay (bacterial extract)", "conditions": "read-out: S-3100 IC50; 3 μM protogen; pH 7.4, 37° C."}, "[5]": {"target": "H_N110 (SEQ ID NO: 10), microbial HemG protoporphyrinogen oxidase", "test": "PPO enzyme assay (bacterial extract)", "conditions": "read-out: S-3100 IC50; 3 μM protogen; pH 7.4, 37° C."}, "R0 soybean plants": {"system": "R0 soybean plants", "test": "R0 transgenic soybean herbicide tolerance at eleven weeks", "type": "in vivo", "conditions": "R0 plants sprayed with S-3100 at eleven weeks, rated seven days after treatment", "method": "as §1, §2"}, "[6]": {"conditions": "H_N10, construct 6, Trt 1, 0.036 lb ai/acre"}, "[7]": {"conditions": "H_N10, construct 6, Trt 2, 0.072 lb ai/acre"}, "[8]": {"conditions": "H_N10, construct 6, Trt 3, 0.144 lb ai/acre"}, "[9]": {"conditions": "H_N10, construct 16, Trt 1, 0.036 lb ai/acre"}, "[10]": {"conditions": "H_N10, construct 16, Trt 2, 0.072 lb ai/acre"}, "[11]": {"conditions": "H_N10, construct 16, Trt 3, 0.144 lb ai/acre"}, "[12]": {"conditions": "wildtype, Trt 1, 0.036 lb ai/acre V2 fb V4 fb V8"}, "[13]": {"conditions": "wildtype, Trt 2, 0.072 lb ai/acre V2 fb V4 fb V8"}, "[14]": {"conditions": "wildtype, Trt 3, 0.144 lb ai/acre V2 fb V4 fb V8"}}, "data": [{"molecule": "CCOC(=O)COc1ncccc1Oc1cc(-n2c(=O)cc(C(F)(F)F)n(C)c2=O)c(F)cc1Cl", "note": "[S-3100, ethyl [3-2-chloro-4-fluoro-5-(1-methyl-6-trifluoromethyl-2,4-dioxo-1,2,3,4-tetrahydropyrimidin-3-yl)phenoxy]-2-pyridyloxylacetate]", "values": [{"measurement": "CIPV2 (Crop Injury Percent, V2)", "setting": "[1]; [6]", "value": 37.5, "unit": "%"}, {"measurement": "CIPV4 (Crop Injury Percent, V4)", "setting": "[1]; [6]", "value": 0, "unit": "%"}, {"measurement": "CIPV2 (Crop Injury Percent, V2)", "setting": "[1]; [7]", "value": 37.5, "unit": "%"}, {"measurement": "CIPV4 (Crop Injury Percent, V4)", "setting": "[1]; [7]", "value": 0, "unit": "%"}, {"measurement": "CIPV2 (Crop Injury Percent, V2)", "setting": "[1]; [8]", "value": 50, "unit": "%"}, {"measurement": "CIPV4 (Crop Injury Percent, V4)", "setting": "[1]; [8]", "value": 0, "unit": "%"}, {"measurement": "CIPV2 (Crop Injury Percent, V2)", "setting": "[1]; [9]", "value": 96.3, "unit": "%"}, {"measurement": "CIPV4 (Crop Injury Percent, V4)", "setting": "[1]; [9]", "value": 98.5, "unit": "%"}, {"measurement": "CIPV2 (Crop Injury Percent, V2)", "setting": "[1]; [10]", "value": 99.5, "unit": "%"}, {"measurement": "CIPV4 (Crop Injury Percent, V4)", "setting": "[1]; [10]", "value": 99.5, "unit": "%"}, {"measurement": "CIPV2 (Crop Injury Percent, V2)", "setting": "[1]; [11]", "value": 99.5, "unit": "%"}, {"measurement": "CIPV4 (Crop Injury Percent, V4)", "setting": "[1]; [11]", "value": 99.5, "unit": "%"}, {"measurement": "injury following V2 and V4 application", "setting": "[1]; non-transgenic and construct 16, all three treatments", "value": "94.6-99.5%"}, {"measurement": "CIPV2 (Crop Injury Percent, V2)", "setting": "[1]; [12]", "value": 94.6, "unit": "%"}, {"measurement": "CIPV4 (Crop Injury Percent, V4)", "setting": "[1]; [12]", "value": 99, "unit": "%"}, {"measurement": "CIPV2 (Crop Injury Percent, V2)", "setting": "[1]; [13]", "value": 99.5, "unit": "%"}, {"measurement": "CIPV4 (Crop Injury Percent, V4)", "setting": "[1]; [13]", "value": 99.5, "unit": "%"}, {"measurement": "CIPV2 (Crop Injury Percent, V2)", "setting": "[1]; [14]", "value": 99.5, "unit": "%"}, {"measurement": "CIPV4 (Crop Injury Percent, V4)", "setting": "[1]; [14]", "value": 99.5, "unit": "%"}, {"measurement": "percent injury score", "setting": "[2]; H_N20, TP6", "value": 15, "unit": "%"}, {"measurement": "percent injury score", "setting": "[2]; H_N20, TP7", "value": 20, "unit": "%"}, {"measurement": "percent injury score", "setting": "[2]; H_N30, TP1", "value": 5, "unit": "%"}, {"measurement": "percent injury score", "setting": "[2]; H_N40, TP1", "value": 5, "unit": "%"}, {"measurement": "percent injury score", "setting": "[2]; H_N40, TP4", "value": 15, "unit": "%"}, {"measurement": "percent injury score", "setting": "[2]; H_N40, TP7", "value": 40, "unit": "%"}, {"measurement": "percent injury score", "setting": "[2]; H_N40, TP8", "value": 30, "unit": "%"}, {"measurement": "percent injury score", "setting": "[2]; H_N50, TP6", "value": 40, "unit": "%"}, {"measurement": "percent injury score", "setting": "[2]; H_N90 (SEQ ID NO:11), TP20", "value": 5, "unit": "%"}, {"measurement": "percent injury score", "setting": "[2]; H_N90 (SEQ ID NO:11), TP32", "value": 50, "unit": "%"}, {"measurement": "percent injury score", "setting": "[2]; H_N90, TP1", "value": 3, "unit": "%"}, {"measurement": "percent injury score", "setting": "[2]; H_N90, TP2", "value": 35, "unit": "%"}, {"measurement": "percent injury score", "setting": "[2]; H_N90, TP3", "value": 30, "unit": "%"}, {"measurement": "percent injury score", "setting": "[2]; H_N90, TP6", "value": 25, "unit": "%"}, {"measurement": "percent injury score", "setting": "[2]; H_N90, TP7", "value": 15, "unit": "%"}, {"measurement": "percent injury score", "setting": "[2]; H_N90, TP8", "value": 40, "unit": "%"}, {"measurement": "percent injury score", "setting": "[2]; H_N100, TP1", "value": 15, "unit": "%"}, {"measurement": "percent injury score", "setting": "[2]; H_N100, TP6", "value": 30, "unit": "%"}, {"measurement": "percent injury score", "setting": "[2]; H_N100, TP7", "value": 30, "unit": "%"}, {"measurement": "average leaf disc score (0 lowest to 4 highest injury)", "setting": "[3]", "value": 0.4}, {"measurement": "IC50", "setting": "[4]", "value": "> 100", "unit": "µM"}, {"measurement": "IC50", "setting": "[5]", "value": "> 100", "unit": "µM"}]}, {"molecule": "H_N90: microbial HemG protoporphyrinogen oxidase, SEQ ID NO:1 (SEQ ID NO:11 lacking start methionine; variants 18, 19) (protein, listed as Enterobacter cloacae) MKALVLYSTRDGQTHAIASYIASCMKEKAECDVIDLTHGEHVNLTQYDQVLIGASIRYGHFNAVLDKFIKRNVDQLNNMPSAFFCVNLTARKPEKRTPQTNPYVRKFLLATPWQPALCGVFAGALRYPRYRWIDKVMIQLIMRMTGGETDTSKEVEYTDWEQVKKFAEDFAKLSYKKAL", "values": [{"measurement": "percent injury score", "setting": "R0 soybean plants; TP1", "value": 3, "unit": "%"}, {"measurement": "percent injury score", "setting": "R0 soybean plants; TP9", "value": 30, "unit": "%"}, {"measurement": "percent injury score", "setting": "R0 soybean plants; TP10", "value": 30, "unit": "%"}, {"measurement": "percent injury score", "setting": "R0 soybean plants; TP11", "value": 30, "unit": "%"}, {"measurement": "percent injury score", "setting": "R0 soybean plants; TP12", "value": 30, "unit": "%"}, {"measurement": "percent injury score", "setting": "R0 soybean plants; TP13", "value": 15, "unit": "%"}, {"measurement": "percent injury score", "setting": "R0 soybean plants; TP14", "value": 25, "unit": "%"}, {"measurement": "percent injury score", "setting": "R0 soybean plants; TP15", "value": 35, "unit": "%"}, {"measurement": "percent injury score", "setting": "R0 soybean plants; TP16", "value": 35, "unit": "%"}, {"measurement": "percent injury score", "setting": "R0 soybean plants; TP17", "value": 15, "unit": "%"}, {"measurement": "percent injury score", "setting": "R0 soybean plants; TP18", "value": 30, "unit": "%"}, {"measurement": "percent injury score", "setting": "R0 soybean plants; TP20", "value": 5, "unit": "%"}, {"measurement": "percent injury score", "setting": "R0 soybean plants; TP21", "value": 25, "unit": "%"}, {"measurement": "percent injury score", "setting": "R0 soybean plants; TP22", "value": 30, "unit": "%"}, {"measurement": "percent injury score", "setting": "R0 soybean plants; TP23", "value": 30, "unit": "%"}, {"measurement": "percent injury score", "setting": "R0 soybean plants; TP26", "value": 40, "unit": "%"}, {"measurement": "percent injury score", "setting": "R0 soybean plants; TP27", "value": 35, "unit": "%"}, {"measurement": "percent injury score", "setting": "R0 soybean plants; TP28", "value": 30, "unit": "%"}, {"measurement": "percent injury score", "setting": "R0 soybean plants; TP32", "value": 50, "unit": "%"}, {"measurement": "percent injury score", "setting": "R0 soybean plants; TP33", "value": 25, "unit": "%"}, {"measurement": "percent injury score", "setting": "R0 soybean plants; TP34", "value": 35, "unit": "%"}, {"measurement": "percent injury score", "setting": "R0 soybean plants; TP35", "value": 15, "unit": "%"}, {"measurement": "percent injury score", "setting": "R0 soybean plants; TP36", "value": 15, "unit": "%"}]}]}
